Where “and” joins values, the source holds several entries; their conditions need not be identical. Equal values may be shown once.
Legend:
[1] = system: ^241Am contaminated dogs (nose-only inhalation); experiment: Efficacy study in dogs, preliminary ^241Am recovery in urine and liver; format: in vivo, dog; details: for Total Recovered Activity, Liver, Treatment Mean / Total Recovered Activity, Urine, Treatment Mean: dogs; for Total Recovered Activity, Liver / Total Recovered Activity, Urine: individual animals
Method: Dogs were administered ^241Am (target of 3 μCi/animal) by nose-only inhalation on Day 0. […] Group 1 was a control and was used for determining the unperturbed biokinetics. Fourteen (14) days post C2E2 administration, the animals were sedated and euthanized. Preliminary urinary excretion and liver retention data were obtained (Table 8).

[2] = system: polychromatic erythrocytes (PCE) in Sprague-Dawley rat bone marrow; experiment: In vivo micronucleus assay
Method: The objective of this study was to evaluate C2E2 for in vivo clastogenic activity and/or disruption of the mitotic apparatus by detecting micronuclei in polychromatic erythrocytes (PCE) in Sprague-Dawley rat bone marrow.
C2E2 was formulated in cell culture grade water vehicle and the dose volume for all treatment groups was 20 mL/kg. The C2E2 was from Lot 050 obtained using Method 2.
Male rats were administered vehicle control, or 500, 1000, or 2000 mg/kg/day of C2E2 once a day for two days separated by approximately 24 hours. The 2000 mg/kg high dose is the limit dose for this assay recommended by ICH S2(R1) guidance. A positive control group of animals received a single 60 mg/kg cyclophosphamide treatment on the second day of dosing. […] Bone marrow was extracted approximately 24 hours after the last treatment in all groups and at least 2000 PCEs per animal were analyzed for the frequency of micronuclei. Cytotoxicity was assessed by scoring the number of PCEs and normochromatic erythrocytes (NCEs) observed while scoring at least 500 erythrocytes per animal.

[3] = Protonation constants by potentiometric titration; format: physicochemical; details: 5 mM ligand in 0.15 M KCl
Method: The protonation constants for C2E2 were determined by preparing a 5 mM solution of free ligand in 0.15 M KCl. The constants were calculated from three replicates, with each experiment consisting of a titration with acid, followed by a titration with base. After each addition of titrant, a 30 second equilibration time passed before pH measurement with a Seven Easy pH meter and (Ag/AgCl reference) glass electrode (Metler Tolledo). At the end of the titrations, the presence of C2E2 was confirmed by HPLC-CAD. Evaluation of the titration curve for C2E2 (FIG. 31) identified 6 pKa values that correspond with the three tertiary amines and three carboxylic acids. The values were determined by refinement using […] software. The pKa values determined for C2E2 are consistent with DTPA analogues previously investigated for use as MRI contrast agents with two carboxylic acids are functionalized such as DTPA-BMA and DTPA-BBA (Rizkalla, E. N., et al., Inorganic Chemistry, 32, 582-586, (1993) and Geraldes C. F., et al., Journal of the Chemical Society-Dalton Transactions, 327-335 (1995)).

^241Am contaminated rats = experiment: Once vs twice daily dosing ^241Am decorporation study in rats; format: in vivo, Sprague Dawley rat; details: for Total Decorporation: seven days after IM ^241Am
Method: The animal study was conducted according to a protocol approved by The University of North Carolina at Chapel Hill Institutional Animal Care and Use Committee. Sixteen male Sprague Dawley rats were contaminated with ^241Am(NO3)3 (0.25 μCi) by intramuscular injection (0.1 mL, 0.1 M HNO3) into the right hind leg, under isoflurane anesthesia. Immediately after injection, body weights were recorded (Day 0 weight) and animals placed in individual metabolic cages. The 16 rats were assigned to four groups; untreated control, 5 daily oral gavage doses of 600 mg/kg C2E2 once daily, 5 days of oral gavage treatment of 300 mg/kg C2E2 twice daily or 5 daily intravenous doses of Zn-DTPA solution (13.3 mg/kg) via a jugular vein catheter. The C2E2 was from Lot 050 obtained using Method 2. The C2E2 dosing solution utilized was a 10% w/w solution in water. […] Excreted urine and feces were collected at 2, 4, 8, 10, 12, 14, 18, 20 and 24 hours after the first dose and daily for the remainder of the study. The samples were transferred to 20 mL scintillation vials, weighed and placed in a gamma counter (Wizard2 2480, Perkin Elmer) for detection of ^241Am gamma activity. In addition, following necropsy, selected tissues were removed, weighed and placed in a gamma counter (Wizard2 2480, Perkin Elmer) for detection of ^241Am gamma activity. The total amount of ^241Am administered to the animals was determined by quantifying the 59.7 keV photons emitted by ^241Am in duplicate aliquots (100 μL) of the injection solution using a gamma counter (wizard series, Perkin-Elmer). A counting window from 40-80 keV and a 60-second counting time were used for acquisition and each reading was corrected for background at acquisition. All experimental tissues and samples were counted using the same gamma counter and protocol. For all the samples, ^241Am content was expressed as a percentage of the initial dose. The femur from the leg opposite to the injection site was scaled by a factor of 20 to estimate total skeletal ^241Am burden.

[4] = C2E2 100 mg/kg oral, female dogs
[5] = C2E2 100 mg/kg oral, female dogs, 100 mg/kg
[6] = C2E2 100 mg/kg oral, male dogs, 100 mg/kg
[7] = C2E2 300 mg/kg oral, female dogs
[8] = C2E2 300 mg/kg oral, female dogs, 300 mg/kg
[9] = C2E2 300 mg/kg oral, male dogs, 300 mg/kg
[10] = C2E2 500 mg/kg oral, female dogs
[11] = C2E2 500 mg/kg oral, female dogs, 500 mg/kg
[12] = C2E2 500 mg/kg oral, male dogs, 500 mg/kg

SMILES: CCOC(=O)CN(CCN(CCN(CC(=O)O)CC(=O)OCC)CC(=O)O)CC(=O)O [C2E2, 6,9-bis(carboxymethyl)-3-(2-ethoxy-2-oxoethyl)-11-oxo-12-oxa-3,6,9-triazatetradecan-1-oic acid]
- Total Recovered Activity, Liver, Treatment Mean ([1]; C2E2 100 mg/kg oral): 168.91 nCi
- Total Recovered Activity, Urine, Treatment Mean ([1]; C2E2 100 mg/kg oral): 168.70 nCi
- Total Recovered Activity, Liver, Gender Mean [1, 4]: 157.92 nCi
- Total Recovered Activity, Urine, Gender Mean [1, 4]: 168.30 nCi
- Total Recovered Activity, Liver [1, 5]: 186.4 nCi and 129.4 nCi
- Total Recovered Activity, Urine [1, 5]: 193.85 nCi and 142.75 nCi
- Total Recovered Activity, Liver, Gender Mean ([1]; C2E2 100 mg/kg oral, male dogs): 179.89 nCi
- Total Recovered Activity, Urine, Gender Mean ([1]; C2E2 100 mg/kg oral, male dogs): 169.10 nCi
- Total Recovered Activity, Liver [1, 6]: 213.3 nCi and 146.5 nCi
- Total Recovered Activity, Urine [1, 6]: 187.57 nCi and 150.63 nCi
- Total Recovered Activity, Liver, Treatment Mean ([1]; C2E2 300 mg/kg oral): 132.28 nCi
- Total Recovered Activity, Urine, Treatment Mean ([1]; C2E2 300 mg/kg oral): 169.50 nCi
- Total Recovered Activity, Liver, Gender Mean [1, 7]: 144.49 nCi
- Total Recovered Activity, Urine, Gender Mean [1, 7]: 181.71 nCi
- Total Recovered Activity, Liver [1, 8]: 87.6 nCi and 201.4 nCi
- Total Recovered Activity, Urine [1, 8]: 121.32 nCi and 242.10 nCi
- Total Recovered Activity, Liver, Gender Mean ([1]; C2E2 300 mg/kg oral, male dogs): 120.06 nCi
- Total Recovered Activity, Urine, Gender Mean ([1]; C2E2 300 mg/kg oral, male dogs): 157.29 nCi
- Total Recovered Activity, Liver [1, 9]: 109.2 nCi and 130.9 nCi
- Total Recovered Activity, Urine [1, 9]: 97.24 nCi and 217.34 nCi
- Total Recovered Activity, Liver, Treatment Mean ([1]; C2E2 500 mg/kg oral): 45.01 nCi
- Total Recovered Activity, Urine, Treatment Mean ([1]; C2E2 500 mg/kg oral): 188.82 nCi
- Total Recovered Activity, Liver, Gender Mean [1, 10]: 40.30 nCi
- Total Recovered Activity, Urine, Gender Mean [1, 10]: 103.00 nCi
- Total Recovered Activity, Liver [1, 11]: 34.3 nCi and 46.3 nCi
- Total Recovered Activity, Urine [1, 11]: 65.39 nCi and 140.61 nCi
- Total Recovered Activity, Liver, Gender Mean ([1]; C2E2 500 mg/kg oral, male dogs): 49.73 nCi
- Total Recovered Activity, Urine, Gender Mean ([1]; C2E2 500 mg/kg oral, male dogs): 274.65 nCi
- Total Recovered Activity, Liver [1, 12]: 49.4 nCi and 50.1 nCi
- Total Recovered Activity, Urine [1, 12]: 288.78 nCi and 260.53 nCi
- Bone marrow cytotoxicity (PCE:NCE ratios) ([2]; 500, 1000, 2000 mg/kg/day x2 days, male rats): absence of treatment-related bone marrow cytotoxicity
- Induction of micronuclei in rat bone marrow ([2]; 500, 1000, or 2000 mg/kg/day orally once a day for 2 days, male rats): negative
- Clinical signs ([2]; one 2000 mg/kg/day animal, Day 2): audible respiration and hypoactive behavior
- PKa2 [3]: 4.68 ± 0.02
- pKa1 [3]: 9.40
- pKa3 [3]: 3.52 ± 0.03
- pKa4 [3]: 1.87 ± 0.05
- pKa5 [3]: 1.76
- pKa6 [3]: 1.45
- Effect of dividing the dosage (twice daily vs once daily) on total decorporation (^241Am contaminated rats; 300 mg/kg BD vs 600 mg/kg OD, male rats): did not significantly alter total decorporation
- Total Decorporation (^241Am contaminated rats; C2E2 300 mg/kg oral gavage twice daily for 5 days, male rats): 43.6 ± 1.6 % of injected dose
- Total Decorporation (^241Am contaminated rats; C2E2 600 mg/kg oral gavage once daily x5, male rats): 39.7 ± 2.6 % of injected dose
